In patent US7932270B2 (Cytokinetics, Inc., priority 2006, dated 2011) one finds IC50 data, which are given here for 34 molecules.

SMILES strings stand for the structures.

For this test, the target named is T1, chicken gizzard smooth muscle myosin subfragment-1 chemically crosslinked to cardiac or skeletal actin (Gallus gallus, UniProt P10587).
T1 construct: chicken gizzard smooth muscle myosin subfragment-1; from tissue; host or cells: chicken gizzard
T1 sequence (P02607 2-151): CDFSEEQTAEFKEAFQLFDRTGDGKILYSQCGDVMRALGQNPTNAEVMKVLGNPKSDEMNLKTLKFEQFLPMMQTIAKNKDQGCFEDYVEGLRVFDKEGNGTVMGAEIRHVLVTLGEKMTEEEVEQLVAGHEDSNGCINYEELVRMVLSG
T1 sequence (P10587 84-789): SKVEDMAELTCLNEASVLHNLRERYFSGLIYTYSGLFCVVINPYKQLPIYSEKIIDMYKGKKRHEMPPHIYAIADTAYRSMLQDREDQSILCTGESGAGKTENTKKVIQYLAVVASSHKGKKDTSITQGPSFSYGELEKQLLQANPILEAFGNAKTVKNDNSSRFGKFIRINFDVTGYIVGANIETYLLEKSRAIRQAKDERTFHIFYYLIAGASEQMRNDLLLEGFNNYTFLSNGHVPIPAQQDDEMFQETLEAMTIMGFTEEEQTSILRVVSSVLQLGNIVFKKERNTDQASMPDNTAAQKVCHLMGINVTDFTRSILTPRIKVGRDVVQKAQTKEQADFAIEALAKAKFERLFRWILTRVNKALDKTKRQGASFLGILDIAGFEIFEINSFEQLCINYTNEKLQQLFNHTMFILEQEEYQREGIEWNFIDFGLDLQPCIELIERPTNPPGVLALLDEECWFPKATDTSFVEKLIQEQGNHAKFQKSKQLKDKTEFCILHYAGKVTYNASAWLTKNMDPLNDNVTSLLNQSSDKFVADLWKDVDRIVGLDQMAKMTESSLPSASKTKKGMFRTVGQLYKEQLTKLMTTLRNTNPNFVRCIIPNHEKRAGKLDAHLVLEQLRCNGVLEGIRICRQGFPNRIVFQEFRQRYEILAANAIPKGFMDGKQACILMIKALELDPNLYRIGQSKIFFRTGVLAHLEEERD
The test is described as follows: Smooth muscle myosin ATPase dose response assay (pyruvate kinase/horseradish peroxidase/pyruvate oxidase-coupled, amplex red fluorescence). To be noted: read-out: IC50 Arithmetic Mean. It is filed as biochemical. In outline:
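Chicken gizzard myosin S1 crosslinked to cardiac or skeletal actin, titrated to a set hydrolysis rate; 0.15 mM ATP, 12 mM PIPES pH 7.00, 100 mM KCl, 2 mM MgCl2. Pyruvate kinase/pyruvate oxidase/HRP coupling with amplex red fluorescence; IC50 from 4-parameter fit.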
For `N#Cc1ccccc1-c1ccc(C(=O)NC[C@H]2CCCN2C(=O)CCCN)c(NCCc2cc(F)cc(F)c2)n1` [N-{[(2R)-1-(4-aminobutanoyl)pyrrolidin-2-yl]methyl}(2-{[2-(3,5-difluorophenyl)ethyl]amino}-6-(2-cyanophenyl)(3-pyridyl))carboxamide], the IC50 was found to be 23 nM.

On to `C[C@H](CNC(=O)c1cc(F)c(-c2cnn(C)c2)nc1NCCc1cccc(F)c1)NC(=O)[C@H](CO)NC(=O)OC(C)(C)C`, for which the IC50 was found to be 2260 nM. Under `N#Cc1ccccc1-c1ccc(C(=O)NCC(O)CN)c(NCCc2cccc(F)c2)n1` (stereo not shown) [N-(3-amino-2-hydroxypropyl)(6-(2-cyanophenyl)-2-{[2-(3-fluorophenyl)ethyl]amino}(3-pyridyl))carboxamide] stands 4810 nM; under `O=C(NCc1ccc(-c2ccccc2)nc1NCCc1cccc(F)c1)Nc1cccnc1` [N-[(2-{[2-(3-fluorophenyl)ethyl]amino}-6-phenyl(3-pyridyl))methyl](3-pyridylamino)carboxamide], 71000 nM; under `NCCc1cccc(CNC(=O)c2ccc(-c3ccccc3)nc2NCCc2cccc(F)c2)n1` [N-{[6-(2-aminoethyl)(2-pyridyl)]methyl}(2-{[2-(3-fluorophenyl)ethyl]amino}-6-phenyl(3-pyridyl))carboxamide], 24 nM. With `C[C@H](N)C(=O)N1CCC[C@@H]1CNC(=O)c1ccc(-c2ccccc2C#N)nc1NCCc1cccc(F)c1` [N-{[(2R)-1-((2S)-2-aminopropanoyl)pyrrolidin-2-yl]methyl}(6-(2-cyanophenyl)-2-{[2-(3-fluorophenyl)ethyl]amino}(3-pyridyl))carboxamide], the IC50 was found to be 53 nM.

Consider `Cn1cc(-c2nc(NCCc3cccc(F)c3)c(C(=O)NCc3cccnc3)cc2Cl)cn1` [(5-chloro-2-{[2-(3-fluorophenyl)ethyl]amino}-6-(1-methylpyrazol-4-yl)(3-pyridyl))-N-(3-pyridylmethyl)carboxamide], for which the IC50 came to 21 nM.

In the case of `Cn1cc(-c2nc(NCCc3cccc(F)c3)c(C(=O)NCc3cccnc3CN)cc2Cl)cn1` [N-{[2-(aminomethyl)(3-pyridyl)]methyl}(5-chloro-2-{[2-(3-fluorophenyl)ethyl]amino}-6-(1-methylpyrazol-4-yl)(3-pyridyl))carboxamide], the IC50 was 30 nM.

Regarding `O=C(NCc1cccnc1)c1ccc(-c2cccc(C(F)(F)F)c2)nc1NCCc1ccccn1` [{2-[(2-(2-pyridyl)ethyl)amino]-6-[3-(trifluoromethyl)phenyl](3-pyridyl)}-N-(3-pyridylmethyl)carboxamide], the 50% inhibitory concentration (IC50) was found to be 5930 nM. `O=C(NCc1cccnc1)c1ccc(-c2cnn(CCO)c2)nc1NCCc1cccc(F)c1` [(2-{[2-(3-fluorophenyl)ethyl]amino}-6-[1-(2-hydroxyethyl)pyrazol-4-yl](3-pyridyl))-N-(3-pyridylmethyl)carboxamide]: the IC50 was determined as 972 nM.

Consider `O=C(NCc1cccnc1)c1ccc(-c2ccsc2CO)nc1NCCc1cccc(F)c1` [(2-{[2-(3-fluorophenyl)ethyl]amino}-6-[2-(hydroxymethyl)(3-thienyl)](3-pyridyl))-N-(3-pyridylmethyl)carboxamide], for which the 50% inhibitory concentration (IC50) was determined as 1570 nM. Turning to `Cc1ccc(CNC(=O)c2ccc(-c3ccccc3C#N)nc2NCCc2cccc(F)c2)cc1` [(6-(2-cyanophenyl)-2-{[2-(3-fluorophenyl)ethyl]amino}(3-pyridyl))-N-[(4-methylphenyl)methyl]carboxamide], the IC50 was 24300 nM. In the case of `CC(=O)NCCNC(=O)c1ccc(-c2ccccc2C#N)nc1NCCc1cccc(F)c1` [N-{2-[(6-(2-cyanophenyl)-2-{[2-(3-fluorophenyl)ethyl]amino}-3-pyridyl)carbonylamino]ethyl}acetamide], the IC50 amounted to 958 nM.

For `O=C(NCc1cccnc1)c1ccc(-c2ccc(O)cc2)nc1NCCc1ccccn1` [{6-(4-hydroxyphenyl)-2-[(2-(2-pyridyl)ethyl)amino](3-pyridyl)}-N-(3-pyridylmethyl)carboxamide], the IC50 turned out to be 586 nM.

For the molecule `O=C(NCc1ccccn1)c1ccc(-c2ccc(CO)s2)nc1NCCc1cccc(F)c1` [(2-{[2-(3-fluorophenyl)ethyl]amino}-6-[5-(hydroxymethyl)(2-thienyl)](3-pyridyl))-N-(2-pyridylmethyl)carboxamide], the IC50 is 45 nM. With `Cn1cc(-c2nc(NCCc3cccc(F)c3)c(C(=O)NC[C@H]3CCN3C(=O)CO)cc2F)cn1` [N-{[(2R)-1-(2-hydroxyacetyl)azetidin-2-yl]methyl}(5-fluoro-2-{[2-(3-fluorophenyl)ethyl]amino}-6-(1-methylpyrazol-4-yl)(3-pyridyl))carboxamide], the IC50 worked out at 47 nM. The value for `N#Cc1ccccc1-c1nc(NCCc2cccc(F)c2)c(C(=O)NC[C@H]2CCCN2C(=O)CCCN)cc1F` [N-{[(2R)-1-(4-aminobutanoyl)pyrrolidin-2-yl]methyl}(6-(2-cyanophenyl)-5-fluoro-2-{[2-(3-fluorophenyl)ethyl]amino}(3-pyridyl))carboxamide] was 38 nM; that for `CC[C@H](CNC(=O)c1cc(F)c(-c2cn[nH]c2)nc1NCCc1cccc(F)c1)NC(=O)CNC(=O)OC(C)(C)C` [N-((1R)-1-{[(5-fluoro-2-{[2-(3-fluorophenyl)ethyl]amino}-6-pyrazol-4-yl(3-pyridyl))carbonylamino]methyl}propyl)-2-[(tert-butoxy)carbonylamino]acetamide] was 4320 nM; that for `C[C@@H](N)C(=O)N1CCC[C@@H]1CNC(=O)c1ccc(-c2ccccc2C#N)nc1NCCc1cccc(F)c1` [N-{[(2R)-1-((2R)-2-aminopropanoyl)pyrrolidin-2-yl]methyl}(6-(2-cyanophenyl)-2-{[2-(3-fluorophenyl)ethyl]amino}(3-pyridyl))carboxamide] was 166 nM. As for `CC(NC(=O)c1ccc(-c2ccccc2C#N)nc1NCCc1cccc(F)c1)C(N)=O` (stereo not shown), the concentration for half-maximal inhibition (IC50) worked out at 564 nM.

In the case of `NC(=O)c1ccc(-c2ccc(C(=O)NCc3cccnc3)c(NCCc3ccccn3)n2)cc1` [4-{6-[(2-(2-pyridyl)ethyl)amino]-5-[N-(3-pyridylmethyl)carbamoyl]-2-pyridyl}benzamide], the IC50 worked out at 2540 nM. The value for `O=C(NCc1cccnc1)c1ccc(-c2ccccc2)nc1NCCOc1ccccc1` [{6-phenyl-2-[(2-phenyoxyethyl)amino](3-pyridyl)}-N-(3-pyridylmethyl)carboxamide] was 20200 nM; that for `O=C(NCc1cccnc1)c1ccc(-c2ccccc2)nc1NCCc1ccccc1` [{6-phenyl-2-[(2-phenylethyl)amino](3-pyridyl)}-N-(3-pyridylmethyl)carboxamide] was 151 nM. As to `N#Cc1ccccc1-c1ccc(C(=O)NCc2cccnc2NCCN)c(NCCc2cccc(F)c2)n1` [N-({2-[(2-aminoethyl)amino](3-pyridyl)}methyl)(6-(2-cyanophenyl)-2-{[2-(3-fluorophenyl)ethyl]amino}(3-pyridyl))carboxamide], the IC50 was 13 nM. The value for `O=C(NCc1cccnc1)c1ccc(-c2ccccc2)nc1NCCc1c[nH]cn1` [{2-[(2-imidazol-4-ylethyl)amino]-6-phenyl(3-pyridyl)}-N-(3-pyridylmethyl)carboxamide] was 9770 nM; that for `NCCCN1CCC(CNC(=O)c2ccc(-c3cn[nH]c3)nc2NCCc2cccc(F)c2)C1=O` (stereo not shown) [N-{[1-(3-aminopropyl)-2-oxopyrrolidin-3-yl]methyl}(2-{[2-(3-fluorophenyl)ethyl]amino}-6-pyrazol-4-yl(3-pyridyl))carboxamide] was 3130 nM; that for `Cc1ccc(CNC(=O)c2ccc(-c3ccccc3C#N)nc2NCCc2cccc(F)c2)cn1` [(6-(2-cyanophenyl)-2-{[2-(3-fluorophenyl)ethyl]amino}(3-pyridyl))-N-[(6-methyl(3-pyridyl))methyl]carboxamide] was 426 nM. Take `CC(C)(C)OC(=O)N1CCC[C@@H]1CNC(=O)c1cc(F)c(-c2ccccc2C#N)nc1NCCc1cccc(F)c1` [tert-butyl (2R)-2-{[(6-(2-cyanophenyl)-5-fluoro-2-{[2-(3-fluorophenyl)ethyl]amino}(3-pyridyl))carbonylamino]methyl}pyrrolidinecarboxylate]: the IC50 was determined as 9040 nM. Under `N#Cc1[nH]ncc1-c1ccc(C(=O)NCc2cccnc2)c(NCCc2cccc(F)c2)n1` [(6-(5-cyanopyrazol-4-yl)-2-{[2-(3-fluorophenyl)ethyl]amino}(3-pyridyl))-N-(3-pyridylmethyl)carboxamide] stands 105 nM. Under `CNC(=O)CNC(=O)c1ccc(-c2ccc(CO)s2)nc1NCCc1cccc(F)c1` [2-[(2-{[2-(3-fluorophenyl)ethyl]amino}-6-[5-(hydroxymethyl)(2-thienyl)](3-pyridyl))carbonylamino]-N-methylacetamide] stands 254 nM. `Cn1cc(-c2ccc(C(=O)NC[C@H]3CCCN3C(=O)CCN)c(NCCc3cccc(F)c3)n2)cn1` [N-{[(2R)-1-(3-aminopropanoyl)pyrrolidin-2-yl]methyl}(2-{[2-(3-fluorophenyl)ethyl]amino}-6-(1-methylpyrazol-4-yl)(3-pyridyl))carboxamide]: the IC50 was found to be 587 nM. The value for `Cn1cc(-c2nc(NCCc3cccc(F)c3)c(C(=O)NC[C@H]3CCN3C(=O)CCCN)cc2F)cn1` [N-{[(2R)-1-(4-aminobutanoyl)azetidin-2-yl]methyl}(5-fluoro-2-{[2-(3-fluorophenyl)ethyl]amino}-6-(1-methylpyrazol-4-yl)(3-pyridyl))carboxamide] was 40 nM; that for `COC(=O)N1CC[C@@H]1CNC(=O)c1ccc(-c2ccccc2C#N)nc1NCCc1cccc(F)c1` [methyl (2R)-2-{[(6-(2-cyanophenyl)-2-{[2-(3-fluorophenyl)ethyl]amino}(3-pyridyl))carbonylamino]methyl}azetidinecarboxylate] was 73 nM. For `N#Cc1ccccc1-c1ccc(C(=O)NCC2CCN(C(=O)CCN)C2)c(NCCc2cccc(F)c2)n1` (stereo not shown) [N-{[1-(3-aminopropanoyl)pyrrolidin-3-yl]methyl}(6-(2-cyanophenyl)-2-{[2-(3-fluorophenyl)ethyl]amino}(3-pyridyl))carboxamide], the IC50 was found to be 270 nM.

For orientation: IC50 means the midpoint of a concentration-inhibition curve.
